Assay results reported in ChEMBL document CHEMBL2311249, “Development of inhibitors of the PAS-B domain of the HIF-2α transcription factor” (J Med Chem, 2013).

Key:
[1] = target: Aryl hydrocarbon receptor nuclear translocator/Endothelial PAS domain-containing protein 1 (Homo sapiens, UniProt P27540+Q99814); assay: (§1) Inhibition of GST-tagged PAS-B domain of HIF-2alpha-Flag-tagged PAS-B domain of ARNT heterodimerization (unknown origin) by luminescence proximity assay; format: protein assay
[2] = target: Aryl hydrocarbon receptor nuclear translocator/Endothelial PAS domain-containing protein 1 (Homo sapiens, UniProt Q99814); assay: as §1; format: protein assay
[3] = target: Endothelial PAS domain-containing protein 1 (Homo sapiens, UniProt Q99814); assay: Binding affinity to wild type PAS-B domain of HIF-2alpha (unknown origin) by isothermal calorimetry analysis
Sequence of Endothelial PAS domain-containing protein 1 (Q99814 whole entry, the tested form may be a part): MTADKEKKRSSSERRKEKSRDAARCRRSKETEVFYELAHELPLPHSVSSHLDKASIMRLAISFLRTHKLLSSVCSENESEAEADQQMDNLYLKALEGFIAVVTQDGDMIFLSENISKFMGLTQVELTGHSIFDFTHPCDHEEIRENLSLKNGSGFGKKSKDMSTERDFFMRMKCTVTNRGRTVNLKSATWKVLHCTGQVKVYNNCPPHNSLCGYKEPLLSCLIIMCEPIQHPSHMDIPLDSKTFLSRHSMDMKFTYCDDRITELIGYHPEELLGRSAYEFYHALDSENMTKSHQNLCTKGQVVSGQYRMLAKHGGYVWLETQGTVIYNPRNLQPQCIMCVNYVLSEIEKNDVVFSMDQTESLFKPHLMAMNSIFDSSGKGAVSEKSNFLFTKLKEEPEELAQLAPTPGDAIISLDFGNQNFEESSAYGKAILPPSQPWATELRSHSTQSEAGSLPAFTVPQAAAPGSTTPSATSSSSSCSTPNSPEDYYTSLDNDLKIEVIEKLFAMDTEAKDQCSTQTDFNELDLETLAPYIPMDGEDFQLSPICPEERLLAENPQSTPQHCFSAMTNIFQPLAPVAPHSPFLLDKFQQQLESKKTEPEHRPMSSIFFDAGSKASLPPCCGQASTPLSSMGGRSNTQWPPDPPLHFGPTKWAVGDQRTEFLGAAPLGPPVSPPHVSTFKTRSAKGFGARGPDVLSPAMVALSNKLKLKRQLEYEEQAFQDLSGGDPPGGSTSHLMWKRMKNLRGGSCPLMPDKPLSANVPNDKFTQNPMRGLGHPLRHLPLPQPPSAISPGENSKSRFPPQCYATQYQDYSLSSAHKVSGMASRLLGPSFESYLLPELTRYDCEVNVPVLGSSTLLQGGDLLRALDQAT

Sequence of Aryl hydrocarbon receptor nuclear translocator/Endothelial PAS domain-containing protein 1 (Homo sapiens, UniProt P27540+Q99814) (P27540 whole entry, the tested form may be a part): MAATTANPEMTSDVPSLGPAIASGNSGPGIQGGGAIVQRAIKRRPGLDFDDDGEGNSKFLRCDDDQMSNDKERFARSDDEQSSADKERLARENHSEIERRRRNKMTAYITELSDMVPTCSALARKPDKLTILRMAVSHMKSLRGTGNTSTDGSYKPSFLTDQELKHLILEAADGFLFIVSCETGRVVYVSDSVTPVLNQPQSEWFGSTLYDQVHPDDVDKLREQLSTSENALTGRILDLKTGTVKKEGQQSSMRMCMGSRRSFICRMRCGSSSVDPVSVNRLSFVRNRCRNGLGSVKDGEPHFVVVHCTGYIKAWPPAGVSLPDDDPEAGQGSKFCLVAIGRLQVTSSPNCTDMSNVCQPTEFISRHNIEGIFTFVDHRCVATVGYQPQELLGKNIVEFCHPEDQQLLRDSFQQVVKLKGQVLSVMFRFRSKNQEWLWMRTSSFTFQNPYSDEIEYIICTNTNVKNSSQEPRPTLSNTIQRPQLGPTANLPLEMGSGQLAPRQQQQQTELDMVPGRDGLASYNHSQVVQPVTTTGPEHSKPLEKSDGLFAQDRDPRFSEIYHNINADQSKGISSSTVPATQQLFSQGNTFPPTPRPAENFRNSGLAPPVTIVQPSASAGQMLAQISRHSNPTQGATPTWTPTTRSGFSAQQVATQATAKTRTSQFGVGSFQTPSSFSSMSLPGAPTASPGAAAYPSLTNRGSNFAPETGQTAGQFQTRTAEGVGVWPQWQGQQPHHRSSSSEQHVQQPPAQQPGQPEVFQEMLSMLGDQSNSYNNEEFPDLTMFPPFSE
Sequence of Aryl hydrocarbon receptor nuclear translocator/Endothelial PAS domain-containing protein 1 (Homo sapiens, UniProt P27540+Q99814) (Q99814 whole entry, the tested form may be a part): as the sequence (Q99814 whole entry, the tested form may be a part) above
Sequence of Aryl hydrocarbon receptor nuclear translocator/Endothelial PAS domain-containing protein 1 (Homo sapiens, UniProt Q99814) (P27540 whole entry, the tested form may be a part): as the sequence (P27540 whole entry, the tested form may be a part) above
Sequence of Aryl hydrocarbon receptor nuclear translocator/Endothelial PAS domain-containing protein 1 (Homo sapiens, UniProt Q99814) (Q99814 whole entry, the tested form may be a part): as the sequence (Q99814 whole entry, the tested form may be a part) above

| IC50 [1] | Structure (SMILES) | IC50 [2] [nM] | Kd [3] [nM] |
| --- | --- | --- | --- |
| Not Active | O=[N+]([O-])c1c(Nc2ccc(Br)cc2)ccc2nonc12 | – | – |
| Not Active | O=[N+]([O-])c1c(Nc2ccc(Cl)cc2)ccc2nonc12 | – | – |
| – | O=[N+]([O-])c1c(Nc2cc(F)cc(C(F)(F)F)c2)ccc2nonc12 | 430 | – |
| – | O=[N+]([O-])c1c(Nc2cc(F)cc(F)c2)ccc2nonc12 | 2000 | 730 |
| – | O=[N+]([O-])c1c(Nc2ccc(Cl)c(Cl)c2)ccc2nonc12 | 120 | – |
| – | O=[N+]([O-])c1c(Nc2cc(F)cc(Cl)c2)ccc2nonc12 | 100 | 90 |
| – | O=[N+]([O-])c1c(Nc2cc(F)cc(Cl)c2)ccc2nn[nH]c12 | > 10000 | > 20000 |
| – | O=[N+]([O-])c1c(Nc2cc(F)cc(Cl)c2)ccc2[nH]cnc12 | < 5000 | – |
| – | Nc1nc2ccc(Nc3cc(F)cc(Cl)c3)c([N+](=O)[O-])c2[nH]1 | > 2000 | – |
| – | CN(c1cc(F)cc(Cl)c1)c1ccc2nonc2c1[N+](=O)[O-] | > 3000 | > 10000 |
| – | Nc1c(Nc2cc(F)cc(Cl)c2)ccc2nonc12 | > 30000 | 6000 |
| Not Active | CC(=O)Nc1c(Nc2cc(F)cc(Cl)c2)ccc2nonc12 | – | – |
| Not Active | O=C(CCl)Nc1c(Nc2cc(F)cc(Cl)c2)ccc2nonc12 | – | – |
| Not Active | O=C1C=CC(=O)N1c1c(Nc2cc(F)cc(Cl)c2)ccc2nonc12 | – | – |
| Not Active | O=[N+]([O-])c1c(NCc2ccc(Cl)cc2)ccc2nonc12 | – | – |
| – | O=[N+]([O-])c1c(NCc2ccc(F)cc2Cl)ccc2nonc12 | 330 | – |
| Not Active | O=[N+]([O-])c1c(NCc2c(F)cccc2Cl)ccc2nonc12 | – | – |
| – | O=[N+]([O-])c1c(NCc2cc(F)cc(Cl)c2)ccc2nonc12 | 2000 | – |
| – | O=[N+]([O-])c1c(NCc2cc(F)ccc2F)ccc2nonc12 | > 10000 | – |
| – | O=[N+]([O-])c1c(NCc2ccc(F)cc2C(F)(F)F)ccc2nonc12 | 500 | 540 |

| IC50 [1] | Structure (SMILES) | IC50 [2] [nM] | Kd [3] [nM] |
| --- | --- | --- | --- |
| Not Active | O=[N+]([O-])c1c(NCc2cc(F)ccc2C(F)(F)F)ccc2nonc12 | – | – |
| Not Active | O=[N+]([O-])c1c(Sc2ccccc2)ccc2nonc12 | – | – |
| Not Active | O=[N+]([O-])c1c(Sc2cccc(F)c2)ccc2nonc12 | – | – |
| Not Active | O=[N+]([O-])c1c(Sc2cc(F)cc(Cl)c2)ccc2nonc12 | – | – |
| Not Active | O=[N+]([O-])c1c(Oc2cc(F)cc(Cl)c2)ccc2nonc12 | – | – |
| Not Active | COc1cccc(Nc2ccc3nonc3c2[N+](=O)[O-])c1 | – | – |
| Not Active | O=[N+]([O-])c1c(Nc2ccc(F)cc2)ccc2nonc12 | – | – |
| – | O=[N+]([O-])c1c(Nc2cccc(Cl)c2)ccc2nonc12 | 180 | – |
| – | O=[N+]([O-])c1c(Nc2cccc(C(F)(F)F)c2)ccc2nonc12 | 460 | – |
| – | O=[N+]([O-])c1cccc(Nc2ccc3nonc3c2[N+](=O)[O-])c1 | 2800 | 3000 |
| – | O=[N+]([O-])c1c(Nc2cccc(F)c2)ccc2nonc12 | 2100 | 2200 |
| Not Active | O=[N+]([O-])c1c(Nc2ccc(C(F)(F)F)cc2Cl)ccc2nonc12 | – | – |
| Not Active | O=[N+]([O-])c1c(Nc2cccc(F)c2Cl)ccc2nonc12 | – | – |
| – | O=[N+]([O-])c1c(Nc2cccc(Cl)c2F)ccc2nonc12 | 760 | – |
| – | O=[N+]([O-])c1c(Nc2ccc(F)c(Cl)c2)ccc2nonc12 | 170 | 400 |
| – | O=[N+]([O-])c1c(Nc2ccc(Cl)c(C(F)(F)F)c2)ccc2nonc12 | 90 | 170 |
| – | O=[N+]([O-])c1cc(Nc2ccc3nonc3c2[N+](=O)[O-])ccc1Cl | 400 | – |
| – | O=[N+]([O-])c1c(NCc2ccccc2)ccc2nonc12 | > 5000 | – |
| Not Active | Cc1ccc(CNc2ccc3nonc3c2[N+](=O)[O-])cc1 | – | – |

| Structure (SMILES) | IC50 [1] | IC50 [2] [nM] | Kd [3] [nM] |
| --- | --- | --- | --- |
| O=[N+]([O-])c1ccccc1Nc1cc(F)cc(Cl)c1 | Not Active | – | 4300 |
| Fc1cc(Cl)cc(Nc2ccc3nonc3c2)c1 | Not Active | – | 3000 |
| CNS(=O)(=O)c1c(Nc2cc(F)cc(Cl)c2)ccc2nonc12 | Not Active | – | – |
| CN(C)S(=O)(=O)c1c(Nc2cc(F)cc(Cl)c2)ccc2nonc12 | Not Active | – | – |
